In patent publication US20250020635A1, “ASSAY METHODS AND USES THEREOF FOR SCREENING ALZHEIMER'S DISEASE TREATMENT COMPOUNDS” (priority 2023, published 2025):
Where two headings read alike, the source gives them in different places.

Key:
His-PLCγ2 protein = molecular target: T1, His-PLCγ2 protein (Homo sapiens, UniProt P16885); assay: Affinity selection mass spectrometry (ASMS); format: binding; conditions: dose range 100-0.05 μM, PLCγ2 400 nM
T1 sequence (P16885 1-1265): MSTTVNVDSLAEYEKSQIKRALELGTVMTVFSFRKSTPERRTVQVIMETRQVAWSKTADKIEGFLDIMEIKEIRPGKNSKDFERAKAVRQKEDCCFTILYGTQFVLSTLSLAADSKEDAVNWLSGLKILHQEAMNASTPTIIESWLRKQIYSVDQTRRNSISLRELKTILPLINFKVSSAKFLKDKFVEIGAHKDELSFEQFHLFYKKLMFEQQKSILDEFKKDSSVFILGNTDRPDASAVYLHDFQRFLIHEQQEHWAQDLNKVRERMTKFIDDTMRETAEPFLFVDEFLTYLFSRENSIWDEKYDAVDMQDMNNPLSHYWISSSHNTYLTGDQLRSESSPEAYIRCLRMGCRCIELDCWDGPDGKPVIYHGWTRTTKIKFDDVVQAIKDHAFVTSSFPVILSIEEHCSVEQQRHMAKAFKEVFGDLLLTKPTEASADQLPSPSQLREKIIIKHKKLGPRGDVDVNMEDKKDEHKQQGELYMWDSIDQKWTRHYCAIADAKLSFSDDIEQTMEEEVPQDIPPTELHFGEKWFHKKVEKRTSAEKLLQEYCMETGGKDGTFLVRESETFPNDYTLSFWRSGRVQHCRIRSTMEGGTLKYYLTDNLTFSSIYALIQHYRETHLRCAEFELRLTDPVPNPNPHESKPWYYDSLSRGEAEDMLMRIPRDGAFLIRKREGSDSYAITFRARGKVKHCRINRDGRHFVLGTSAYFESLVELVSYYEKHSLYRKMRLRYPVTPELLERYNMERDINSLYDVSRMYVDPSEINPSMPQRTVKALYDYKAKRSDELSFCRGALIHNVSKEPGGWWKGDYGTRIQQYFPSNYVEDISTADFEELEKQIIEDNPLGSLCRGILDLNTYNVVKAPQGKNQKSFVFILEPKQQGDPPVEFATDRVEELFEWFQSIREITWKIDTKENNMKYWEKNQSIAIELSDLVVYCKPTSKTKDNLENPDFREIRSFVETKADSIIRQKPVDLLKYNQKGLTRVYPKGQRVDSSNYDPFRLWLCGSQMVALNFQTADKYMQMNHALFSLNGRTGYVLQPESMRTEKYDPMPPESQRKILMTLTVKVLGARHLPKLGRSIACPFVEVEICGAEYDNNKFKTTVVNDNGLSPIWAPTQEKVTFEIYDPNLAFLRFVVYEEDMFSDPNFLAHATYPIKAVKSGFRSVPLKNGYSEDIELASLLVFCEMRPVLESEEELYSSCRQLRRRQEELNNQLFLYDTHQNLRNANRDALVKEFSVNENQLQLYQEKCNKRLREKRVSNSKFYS
Protocol: Using a dose range of 100-0.05 μM in 384 well low-volume polypropylene microtiter plates, a solution of PLCγ2 (final concentration 400 nM) was transferred to biochip arrays functionalized with a Tris-Ni-NTA-presenting self-assembled monolayer to immobilize the His-tagged protein. The arrays were incubated for 90 min in a humidified chamber to prevent evaporation and allow for specific immobilization of the His-PLCγ2 protein, along with any bound small molecules. The arrays were purified by a rapid <3 second gentle wash step with deionized ultra-filtered water and dried with compressed air. ASMS was performed using the reflector positive mode on an Aβ Sciex TOF-TOF 5800 System (Aβ Sciex, Framingham, MA).

[1] = Kinetic solubility in pH 7.4 phosphate buffer; format: physicochemical
Protocol: (§1) Physicochemical and ADME properties were determined using the following assays: microsomal stability intrinsic clearance (Clint) in mouse liver microsomal solution, MDCK permeability (Papp), protein binding (fu) in mouse plasma, and kinetic solubility in pH 7.4 phosphate buffer (Table 7).

MDCK = MDCK permeability; format: in vitro ADME; conditions: estimate of intestinal absorption
Protocol: as §1

BV2 cells = assay: Microglial phagocytosis/cell health high-content assay, BV2 cells; format: cell-based; conditions: 60 μM, 48 hrs, compared to control
Protocol: (§2) The assay introduced here is a simplified cellular imaging assay without any fixation and washing steps, while producing multiparameter measurements with high capacity using a 384-well plate format. The assay procedures include plating cells on day 1, incubating cell plates overnight before treating cells on day 2, adding pHrodo™-myelin/membrane debris to cell plates on day 3, and 20 hr later, staining cell nuclei with Hoechst-33342 for 30 min before performing high-content imaging on day 4. Three selected parameters are measured from cells: 1) mean total fluorescence intensity per cell of pHrodo™-myelin/membrane debris in phagocytosis vesicles to quantify phagocytosis; 2) cell counts per well to quantify treatment effects on proliferation and cell death; and 3) average nuclear intensity to quantify treatment-induced nuclear changes such as in apoptosis. The assay has been used on HMC3 cells (an immortalized human microglial cell line), BV2 cells (an immortalized mouse microglial cell line), and primary microglia isolated from mouse brains. For initial assay attempts, we recommend using HMC3 cells available from the ATCC.
(§3) All collected raw data are normalized to the untreated control with following formula: % of control=100×(X−Min)/(Max−Min). Factors in the formula are: X is raw data from a treated well, Max is an average measurement from pHrodo™-myelin seeded but untreated wells, and Min is an average measurement from no pHrodo™-myelin untreated wells. Normalized data are used for curve fitting that is done with the variable slope (four parameters) using the Prism software.
(§4) To ensure that the measurements reflect the steady state of compound treatment effects and cell health, the assay was set with a total compound treatment time of 48 hr, including pHrodo™-myelin/membrane debris seeding performed 20-24 hr after compound addition. […] Among many available quantitative measurements from the image analysis, we selected three parameters for the assay:
(§5) 1) The mean total intensity of phagocytosis vesicles/cell—to measure phagocytosis. There are multiple parameters generated from the image analysis, including phagocytosis vesicle area, number, and various fluorescence intensity measurements. Comparing these parameters, the total fluorescence intensity of vesicles/cell is the most sensitive one and was chosen for quantifying phagocytosis.
(§6) 2) The total cell counts—to measure overall cell viability, which is affected by proliferation and cell death. We chose to take 4 images/well (with the 10× objective lens) that cover about 50% of the total area of a well in a 384-well plate to represent cell count of the well.
(§7) 3) The average nuclear intensity—to measure drug-induced apoptosis, with high signal indicating nuclear condescension (a sign of early apoptosis) and low signal indicating DNA degradation (a sign of later apoptosis, when activated caspases digest DNA).
(§8) A phenotypic high-content imaging assay with simultaneous measurements of phagocytosis, cell number, and nuclear intensity was used to assess both cellular pharmacology and cell health. Model cell lines BV2 (immortalized mouse microglia, a gift from Dr. Michelle Block's laboratory at IUSM) and HMC3 (immortalized human microglia, obtained from ATCC, CRL-3304) were used to provide adequate throughput. Cells were cultured in DMEM GlutaMax media (ThermoFisher) containing 10% FBS and Pen-Strep in a 37° C. 5% CO2 incubator, plated in Corning Falcon 384 well Optilux Black and clear bottom plates: 400 cells/45 μl/well (BV2 cells), 600 cells/45 μl/well (HMC3 cells) and 2000 cell/45 μl/well (primary cells), and treated with 10× serially diluted compounds (60 μM-3 nM) for 48 hrs at 37° C. […]

HiBit only = assay: Cellular thermal shift assay (CETSA), HiBit only control; format: cell-based, human
PLCγ2-HiBit = molecular target: T2, PLCγ2-HiBit (Homo sapiens, UniProt P16885); assay: Cellular thermal shift assay (SplitLuc CETSA), PLCγ2-HiBit in HMC3 cells; format: cell-based; conditions: for PLCγ2-HiBit %, percent luminescence at highest dose compared to control (DMSO): 100 μM; for PLCy2-HiBit % @100: Table 1
T2 construct: expressed in transfected cells; host or cells: HMC3 cells
T2 sequence (P16885 1-1265): T1 sequence (P16885 1-1265)
Text: These compounds have been evaluated using a wide variety of assay classes namely target engagement utilizing cellular thermal shift assay (CETSA),^34 affinity selection mass spectrometry (ASMS),^35 biochemical activity employing the fluorogenic probe XY-69,^36 and cellular activity testing for phagocytosis. Cellular Thermal Shift Assays (CETSA) assess cellular target engagement by quantifying changes in protein thermal stability upon ligand binding to endogenous proteins in intact cells.^34 For SAR studies, a split Nano Luciferase (SplitLuc CETSA) version of the assay was utilized to provide sufficient throughput.^37,38 HMC3 cells were stably transfected with PLCγ2-HiBit to enable protein expression in a physiologically relevant cellular context. The thermal stability of this HiBit-labeled protein in intact cells was measured in the following two formats. In the initial screen, using 96-well plates, cells were treated with FBS analogs at a single concentration (100 μM) at 37° C. for 60 min and then exposed to a 3-minute isothermal heating step at 45.9° C. (experimentally determined Tm of PLCγ2-HiBit). Luminescence detection was then conducted with the Nano-Glo HiBit Lytic detection kit (Promega, Cat. N3040).^38 Compound treatment was performed in triplicate, and raw signals were normalized to the mean of the controls (in the same plate) as % of control. When the difference in compound-treated cells >control mean+3SD, the compound was considered positive and selected for further testing with dose-response CETSA. In the dose response CETSA, cells were treated with decreasing concentrations from 100 μM with 1:3 serial dilutions to generate an 8-point curve. An AC50 was calculated with the % of control data using a four-parameter logistic curve regression model, and the percent luminescence remaining at the highest concentration is also reported for the compounds when the difference from the DMSO control is greater than 3× the standard deviation (SD). Otherwise, an AC50 was not calculated.

[2] = Microsomal stability intrinsic clearance; format: in vitro ADME; conditions: mouse liver microsomes
Protocol: as §1

HMC3 cells [3] = assay: Microglial phagocytosis/cell health high-content assay, HMC3 cells; format: cell-based; conditions: 60 μM, 48 hrs, compared to control
Protocol: as §2, §3, §4, §5, §6, §7, §8

HMC3 cells [4] = assay: as above; format: cell-based; conditions: 24-hr treatment
[5] = Protein binding in mouse plasma; format: in vitro ADME
Protocol: as §1

SMILES | target engagement, signal against background (His-PLCγ2 protein) | Kinetic solubility [1] [µM] | Papp, MDCK permeability (MDCK) | Ave. % Cell Count @ 60 uM BV2 cells (BV2 cells) [%] | Ave. % Phagocytosis @ 60 uM BV2 cells (BV2 cells) [%] | HiBit only %, percent luminescence at highest dose with HiBit only compared to control (DMSO) (HiBit only; 100 μM) [%] | HiBit only % @100 μM (HiBit only; Table 1, @100 μM) [%] | PLCγ2-HiBit %, percent luminescence at highest dose compared to control (DMSO) (PLCγ2-HiBit) [%] | PLCy2-HiBit % @100 (PLCγ2-HiBit) [%] | Clint, intrinsic clearance [2] [µL/min/mg] | Ave. % Cell Count @ 60 uM HMC3 cells (HMC3 cells [3]) [%] | Ave. % Phagocytosis @ 60 uM HMC3 cells (HMC3 cells [3]) [%] | IC50 (HMC3 cells [4]; read-out: cell count (inhibition of cell proliferation) IC50) [nM] | EC50 (HMC3 cells [4]; read-out: increase of nuclear intensity EC50) [nM] | IC50 (HMC3 cells [4]; read-out: inhibition of phagocytosis IC50) [nM] | fu, fraction unbound [5]
Nc1ncnc2c1ncn2[C@@H]1O[C@H](COP(=O)(O)OP(=O)(O)OP(=O)(O)O)[C@@H](O)[C@H]1O [ATP] | clear separation from background signal |  |  |  |  |  |  |  |  |  |  |  |  |  |  | 
O=S(=O)(Nc1cccc(C(F)(F)F)c1)c1ccccc1 [Compound 4] |  | >100 | 79.7 ×10−^6 cm/s | 95 | 106 | 82 | 82 | 65 | 65 | 607.66 | 84 | 89 |  |  |  | 
C=C1[C@@H](C)[C@H]2[C@H](Cc3ccccc3)NC(=O)[C@]23[C@H](OC(C)=O)/C=C/[C@@](C)(O)C(=O)[C@@H](C)C/C=C/[C@H]3[C@@H]1O [Cytochalasin D] |  |  |  |  |  |  |  |  |  |  |  |  | 367 | 488 | 138 | 
Cc1cc(C)c(S(=O)(=O)Nc2cccc(C#N)c2)c(C)c1 [Compound 3] |  | 81 to 100 | 69.8 ×10−^6 cm/s | 85 | 113 |  |  | 96 | 96 |  | 79 | 111 |  |  |  | 0.0003
